“And” between values parts separate entries of the source, which are not always exact repeats. Equal entries are not always repeated.
Assays:
mKOR = target: T1, mKOR (Mus musculus, UniProt P33534); experiment: [125I]BNtxA radioligand competition binding, mouse KOR; conditions: mean ± SEM, n = 3; [125I]BNtxA; read-out: Ki ± SEM mKOR
T1 construct: expressed in transfected cells; membranes

hDOR = hDOR (Homo sapiens, UniProt P41143); experiment: CAMYEL BRET cAMP agonist assay at hDOR; format: cell-based; conditions: for Agonist activity of 7OH analogs at hDOR: single replicate values, Supplementary Figure 7A
hKOR = hKOR (Homo sapiens, UniProt P41145); experiment: CAMYEL BRET cAMP agonist assay at hKOR; format: cell-based; conditions: individual replicates, Supplementary Figure 8A source data
mMOR = target: T2, mMOR (Mus musculus, UniProt P42866); experiment: [125I]BNtxA radioligand competition binding, mouse MOR; conditions: mean ± SEM, n = 3; [125I]BNtxA; read-out: Ki ± SEM mMOR
T2 construct: signal peptide (heterologous, not specified) (N); expressed in transfected cells; pcDNA3.1(+) construct made in house

hMOR = target: T3, hMOR (Homo sapiens, UniProt P35372); experiment: cell-based
T3 construct: expressed in transfected cells; plasmid a gift from Dr. Nevin Lambert

CD1 mice = experiment: Tail-flick antinociception in CD1 mice; format: in vivo, mouse; conditions: for Tail flick (%MPE), average / Tail flick latency in secs, Av / Tail flick (%MPE) / Tail flick latency / Tail flick latency in secs, mean: sc; for Tail flick (%MPE), average / Tail flick latency in secs, Av: average of 11 animals; for Tail flick (%MPE) / Tail flick latency: individual animals; for Tail flick latency in secs, mean: mean of 8 animals

Q: What does the source list for CC[C@@H]1CN2CC[C@@]3(O)C(=Nc4cc(F)cc(OC)c43)[C@@H]2C[C@@H]1/C(=C\OC)C(=O)OC [11-F-7OH (22), 11-Fluoro-7-hydroxymitragynine]?
A: Ki (mKOR): 21 ± 3.2 nM; Agonist activity of 7OH analogs at hDOR (hDOR; Log[drug] (M) -5): 35.2154 and 37.8271 and 20.1668 and 20.0459 and 27.5701 and 32.2497 and 21.4666 and 22.179 and 20.5682; Agonist activity of 7OH analogs at hDOR (hDOR; Log[drug] (M) -6): 34.2535 and 17.385 and 29.3707 and 32.2245 and 19.3851 and 24.4275 and 22.3041 and 14.4734 and 13.6453; Agonist activity of 7OH analogs at hDOR (hDOR; Log[drug] (M) -7): 30.3483 and 21.8663 and 22.0325 and 12.2379 and 10.9328 and 13.3432 and 3.216 and 7.058 and 2.651; Agonist activity of 7OH analogs at hDOR (hDOR; Log[drug] (M) -8): 2.89 and -16.6078 and 13.7181 and 1.455 and 8.915 and -8.089 and -4.58 and 2.715 and 18.3397; Agonist activity of 7OH analogs at hDOR (hDOR; Log[drug] (M) -9): 8.34 and 5.8475 and -3.905 and -8.29 and 12.1949 and 6.438 and 2.013 and 5.417; Agonist activity of 7OH analogs at hDOR (hDOR; Log[drug] (M) -10): 4.091 and -4.63 and 8.526 and 11.2871 and -1.147 and 9.891 and 2.3909 and 3.977 and 19.4184; Agonist activity of 7OH analogs at hDOR (hDOR; Log[drug] (M) -11): -7.5527 and 10.3457 and 6.839 and 6.552 and 7.529 and 1.024 and 18.8483 and 4.15 and -0.7846; Agonist activity of 7OH analogs at hDOR (hDOR; Log[drug] (M) -13): -0.5197 and 3.103 and 0.8755 and 5.994 and 5.535 and -9.529 and 9.805 and -0.2765; EC50 (hDOR; hDOR cAMP BRET, read-out: EC50): 151 nM; Emax (hDOR; read-out: Emax): 26%; Agonist activity of 7OH analogs at hKOR (hKOR; Log [drug](M) -5): 12.7288 and 7.6957 and 5.691 and 5.203 and 10.1397 and 6.346 and 11.5584 and 16.2136 and 8.114; Agonist activity of 7OH analogs at hKOR (hKOR; Log [drug](M) -6): 4.1678 and -6.234 and -2.623 and -0.4626 and 5.449 and 14.973 and 13.878 and 7.062 and 8.9598; Agonist activity of 7OH analogs at hKOR (hKOR; Log [drug](M) -7): 15.7968 and 0.7988 and 22.403 and -2.445 and 4.302 and 10.7854 and 12.9808 and 8.955 and 17.6223; Agonist activity of 7OH analogs at hKOR (hKOR; Log [drug](M) -8): 4.851 and -3.884 and -5.474 and 6.013 and -0.3123 and 2.012 and 9.524 and 10.5291 and 12.8743; Agonist activity of 7OH analogs at hKOR (hKOR; Log [drug](M) -9): -6.272 and 9.969 and -14.9547 and 3.87 and -4.029 and 4.071 and 2.29 and -8.644 and 9.488; Agonist activity of 7OH analogs at hKOR (hKOR; Log [drug](M) -10): -8.62 and -13.3054 and -5.371 and -6.566 and 5.6803 and 0.6674 and -0.4006 and -4.716 and 0.9825; Agonist activity of 7OH analogs at hKOR (hKOR; Log [drug](M) -11): -18.0186 and -16.1556 and -9.7654 and -4.481 and 6.079 and -3.726 and -2.3334 and -2.856 and -4.795; Agonist activity of 7OH analogs at hKOR (hKOR; Log [drug](M) -13): 2.027 and -5.796 and 3.769 and 2.62 and 6.896 and -9.516 and -3.456 and 3.959 and -0.5033; Ki (mMOR): 13.7 ± 1 nM; IC50 (hMOR): 590 nM; duration of residual analgesic effect (CD1 mice; 5 mg/kg s.c., CD1 mice): at least 120 min; time of peak analgesic effect post injection (CD1 mice; 5 mg/kg s.c., CD1 mice): 15 min; partial analgesic efficacy (CD1 mice; 5 mg/kg s.c., CD1 mice, tail-flick): < 40 % MPE; Tail flick (%MPE), average (CD1 mice; 5 mg/kg, 15 min): 38 %MPE; Tail flick latency in secs, Av (CD1 mice; 5 mg/kg, 15 min): 5.1 s; Tail flick (%MPE) (CD1 mice; 5 mg/kg, 15 min): 53 %MPE and 57 %MPE and 20 %MPE and 21 %MPE and 30 %MPE (2×) and 35 %MPE and 62 %MPE and 25 %MPE and 54 %MPE and 27 %MPE; Tail flick latency (CD1 mice; 5 mg/kg, 15 min): 6.3 secs and 6.7 secs and 3.5 secs and 4.2 secs (2×) and 4.9 secs (2×) and 4.3 secs and 7.0 secs and 4.0 secs and 6.6 secs; Tail flick (%MPE), average (CD1 mice; 5 mg/kg, 30 min): 32 %MPE; Tail flick latency in secs, Av (CD1 mice; 5 mg/kg, 30 min): 4.7 s; Tail flick (%MPE) (CD1 mice; 5 mg/kg, 30 min): 15 %MPE and 100 %MPE and 37 %MPE and 11 %MPE and 14 %MPE and 21 %MPE and 19 %MPE and 56 %MPE and 32 %MPE and 4 %MPE and 38 %MPE; Tail flick latency (CD1 mice; 5 mg/kg, 30 min): 3.4 secs (2×) and 10.0 secs and 4.9 secs and 3.8 secs and 3.6 secs (2×) and 6.4 secs and 4.6 secs and 2.9 secs and 5.1 secs; Tail flick (%MPE), average (CD1 mice; 5 mg/kg, 60 min): 13 %MPE; Tail flick latency in secs, Av (CD1 mice; 5 mg/kg, 60 min): 3.3 s; Tail flick (%MPE) (CD1 mice; 5 mg/kg, 60 min): 15 %MPE and 34 %MPE and 31 %MPE and -9 %MPE and -7.53 %MPE and 10 %MPE and 8 %MPE and 33 %MPE and 11 %MPE and 2.7 %MPE and 18 %MPE; Tail flick latency (CD1 mice; 5 mg/kg, 60 min): 3.4 secs and 4.9 secs and 4.4 secs and 1.9 secs and 2.2 secs and 2.7 secs and 2.8 secs (2×) and 4.6 secs and 2.9 secs and 3.5 secs; Tail flick (%MPE), average (CD1 mice; 5 mg/kg, 120 min): 15 %MPE; Tail flick latency in secs, Av (CD1 mice; 5 mg/kg, 120 min): 3.4 s; Tail flick (%MPE) (CD1 mice; 5 mg/kg, 120 min): 38 %MPE and 44 %MPE and 49 %MPE and -4 %MPE and -12 %MPE and 6 %MPE (2×) and 3.8 %MPE and -1.23 %MPE and 9 %MPE and 22 %MPE; Tail flick latency (CD1 mice; 5 mg/kg, 120 min): 5.2 secs and 5.7 secs and 5.9 secs and 2.3 secs (2×) and 1.8 secs (2×) and 2.4 secs and 2.5 secs and 3.3 secs and 3.8 secs; Tail flick (%MPE) (CD1 mice; Fig 9b, 5 mg/kg): 17.7 %MPE and 17.8 %MPE and 17.3 %MPE and 17.1 %MPE and 26.9 %MPE and 34.1 %MPE and 38.3 %MPE and 27.3 %MPE; Tail flick latency (CD1 mice; Fig 9b, 5 mg/kg): 3.5 s and 4.0 s and 3.3 s and 3.7 s and 4.3 s and 4.6 s and 5.0 s and 4.4 s; Tail flick latency in secs, mean (CD1 mice; Fig 9b, 5 mg/kg): 4.1 s; Tail flick (%MPE) (CD1 mice; Fig 9b, 10 mg/kg): 24.1 %MPE and 13.7 %MPE and 25.9 %MPE and 28.9 %MPE and 26.9 %MPE and 39.0 %MPE and 32.1 %MPE and 27.3 %MPE; Tail flick latency (CD1 mice; Fig 9b, 10 mg/kg): 4.0 secs (2×) and 3.7 secs and 4.6 secs and 4.3 secs and 5.0 secs and 4.5 secs and 4.4 secs; Tail flick latency in secs, mean (CD1 mice; Fig 9b, 10 mg/kg): 4.3 s; Tail flick (%MPE) (CD1 mice; Fig 9b, 25 mg/kg): 29.1 %MPE and 27.4 %MPE and 42.0 %MPE and 38.2 %MPE and 23.1 %MPE and 36.6 %MPE and 37.0 %MPE and 44.2 %MPE; Tail flick latency (CD1 mice; Fig 9b, 25 mg/kg): 4.4 secs and 4.7 secs and 5.3 secs (2×) and 4.0 secs and 4.8 secs and 4.9 secs and 5.7 secs

Source: article PMC8219695 (Nature Communications, 2021)
